Measurements reported in patent publication US10206937B2, “Boronic acid derivatives and therapeutic uses thereof” (Qpex Biopharma, Inc., priority 2014, dated 2019).

Test system: strains of Enterobacteriaceae producing various carbapenemases (class A, D and B; 104 strains)
Assay: Antibiotics potentiation by Compound 27 (MIC; meropenem, doripenem, ertapenem, cefepime)
Format: cell-based
Details: + 27 = with Compound 27 at fixed 4 μg/ml

COc1ccc2c(c1C(=O)O)OB(O)C(Sc1nnc(N)s1)C2 (centres unmarked) [E + 27]
MIC (strain CF1012 Citrobacter freundii (KPC-2)): X (MIC of less than 1 μg/mL)
MIC (strain CF1021 Citrobacter freundii (CMY-type; VIM-1)): X (MIC of less than 1 μg/mL)
MIC (strain CF1022 Citrobacter freundii (SHV-12(2be), TEM-OSBL(2b); IMP-8)): X (MIC of less than 1 μg/mL)
MIC (strain CF1023 Citrobacter freundii (SHV-12(2be), TEM-OSBL(2b); CTX-M-3; CMY-34; NDM-1)): X (MIC of less than 1 μg/mL)
MIC (strain CL1080 Enterobacter cloacae (IMP-1)): Y (MIC of 1 μg/mL to 10 μg/mL)
MIC (strain EA1019 Enterobacter aerogenes (SHV-5, VIM-1)): X (MIC of less than 1 μg/mL)
MIC (strain EC1007 Escherichia coli (KPC-3)): X (MIC of less than 1 μg/mL)
MIC (strain EC1061 Escherichia coli (NDM-1, CMY-6)): X (MIC of less than 1 μg/mL)
MIC (strain EC1062 Escherichia coli (OXA-48, CTX-M-15)): X (MIC of less than 1 μg/mL)
MIC (strain EC1064 Escherichia coli (NDM-1, CMY-6, CTX-M-15)): Z (MIC of greater than 10 μg/mL)
MIC (strain EC1065 Escherichia coli (IMP-1)): X (MIC of less than 1 μg/mL)
MIC (strain EC1068 Escherichia coli (VIM-1)): X (MIC of less than 1 μg/mL)
MIC (strain EC1069 Escherichia coli (CTX-M-27; NDM-1)): X (MIC of less than 1 μg/mL)
MIC (strain EC1070 Escherichia coli (TEM-OSBL(2b); CMY-42; NDM-5)): X (MIC of less than 1 μg/mL)
MIC (strain EC1072 Escherichia coli (CTX-M-3; NDM-1)): X (MIC of less than 1 μg/mL)
MIC (strain ECL1004 Enterobacter cloacae (NMC-A)): X (MIC of less than 1 μg/mL)
MIC (strain ECL1026 Enterobacter cloacae (KPC-2, TEM-1)): X (MIC of less than 1 μg/mL)
MIC (strain ECL1036 Enterobacter cloacae (KPC-3, TEM-1)): X (MIC of less than 1 μg/mL)
MIC (strain ECL1045 Enterobacter cloacae (VIM-1)): Y (MIC of 1 μg/mL to 10 μg/mL)
MIC (strain ECL1055 Enterobacter cloacae (KPC-3, TEM)): X (MIC of less than 1 μg/mL)
MIC (strain ECL1057 Enterobacter cloacae (NDM-1, TEM-1, CTX-M-15)): Z (MIC of greater than 10 μg/mL)
MIC (strain ECL1058 Enterobacter cloacae (KPC-3, SHV-11, TEM-1)): Y (MIC of 1 μg/mL to 10 μg/mL)
MIC (strain ECL1059 Enterobacter cloacae (KPC-3, SHV-12, TEM-1)): X (MIC of less than 1 μg/mL)
MIC (strain ECL1061 Enterobacter cloacae (KPC-3, Hyper AmpC expression)): Y (MIC of 1 μg/mL to 10 μg/mL)
MIC (strain ECL1082 Enterobacter cloacae (VIM-1)): X (MIC of less than 1 μg/mL)
MIC (strain ECL1084 Enterobacter cloacae (CTX-M-15; ACT-16; NDM-1)): X (MIC of less than 1 μg/mL)
MIC (strain ECL1085 Enterobacter cloacae (SHV-31(2be), TEM-1(2b); CTX-M-15; NDM-1)): X (MIC of less than 1 μg/mL)
MIC (strain ECL1086 Enterobacter cloacae (VIM-31, OXA-48(c))): Y (MIC of 1 μg/mL to 10 μg/mL)
MIC (strain ECL1087 Enterobacter cloacae (VIM-1)): X (MIC of less than 1 μg/mL)
MIC (strain ECL1088 Enterobacter cloacae (TEM-1(2b); CTX-M-14; ACT-type; VIM-1)): X (MIC of less than 1 μg/mL)
MIC (strain ECL1089 Enterobacter cloacae (ACT-type; IMP-1)): Z (MIC of greater than 10 μg/mL)
MIC (strain ECL1090 Enterobacter cloacae (TEM-1(2b); CTX-M-22; ACT-type; IMP-8)): X (MIC of less than 1 μg/mL)
MIC (strain ECL1091 Enterobacter cloacae (VIM-1)): X (MIC of less than 1 μg/mL)
MIC (strain ECL1092 Enterobacter cloacae (TEM-OSBL(2b); ACT-32; VIM-1)): X (MIC of less than 1 μg/mL)
MIC (strain ECL1093 Enterobacter cloacae (TEM-OSBL(2b); ACT-32; VIM-1)): X (MIC of less than 1 μg/mL)
MIC (strain ECL1094 Enterobacter cloacae (VIM-1)): Y (MIC of 1 μg/mL to 10 μg/mL)
MIC (strain ECL1096 Enterobacter cloacae (CMY-4, VIM-4, OXA-48(c))): X (MIC of less than 1 μg/mL)
MIC (strain ECL1097 Enterobacter cloacae (SHV-31(2be), TEM-OSBL(2b); CTX-M-15; ACT-31; NDM-1)): X (MIC of less than 1 μg/mL)
MIC (strain ECL1098 Enterobacter cloacae (TEM-OSBL(2b); DHA-1; ACT-16; NDM-1)): X (MIC of less than 1 μg/mL)
MIC (strain KP1001 Klebsiella pneumoniae (KPC TEM SHV)): Z (MIC of greater than 10 μg/mL)
MIC (strain KP1002 Klebsiella pneumoniae (KPC TEM SHV)): X (MIC of less than 1 μg/mL)
MIC (strain KP1003 Klebsiella pneumoniae (KPC TEM SHV)): X (MIC of less than 1 μg/mL)
MIC (strain KP1004 Klebsiella pneumoniae (KPC-2, TEM-1, SHV-11)): X (MIC of less than 1 μg/mL)
MIC (strain KP1008 Klebsiella pneumoniae (KPC-2)): X (MIC of less than 1 μg/mL)
MIC (strain KP1014 Klebsiella pneumoniae (VIM-1, TEM, SHV)): X (MIC of less than 1 μg/mL)
MIC (strain KP1054 Klebsiella pneumoniae (VIM-1, SHV-11)): X (MIC of less than 1 μg/mL)
MIC (strain KP1059 Klebsiella pneumoniae (VIM-1, SHV-11)): Y (MIC of 1 μg/mL to 10 μg/mL)
MIC (strain KP1061 Klebsiella pneumoniae (KPC-3, SHV-11, TEM-1)): X (MIC of less than 1 μg/mL)
MIC (strain KP1064 Klebsiella pneumoniae (KPC-2, SHV-11, TEM-1)): Z (MIC of greater than 10 μg/mL)
MIC (strain KP1065 Klebsiella pneumoniae (VIM-1, SHV-11)): X (MIC of less than 1 μg/mL)
MIC (strain KP1070 Klebsiella pneumoniae (KPC-2, SHV-11, TEM-1)): X (MIC of less than 1 μg/mL)
MIC (strain KP1074 Klebsiella pneumoniae (KPC-3, SHV-11, TEM)): Z (MIC of greater than 10 μg/mL)
MIC (strain KP1081 Klebsiella pneumoniae (NDM-1, TEM-1, SHV-11, CMY-6, CTX-M-15)): Y (MIC of 1 μg/mL to 10 μg/mL)
MIC (strain KP1082 Klebsiella pneumoniae (KPC-2, SHV-1)): X (MIC of less than 1 μg/mL)
MIC (strain KP1083 Klebsiella pneumoniae (KPC-3, SHV-1, TEM-1)): X (MIC of less than 1 μg/mL)
MIC (strain KP1084 Klebsiella pneumoniae (KPC-3, SHV-11, TEM-1)): Z (MIC of greater than 10 μg/mL)
MIC (strain KP1086 Klebsiella pneumoniae (OXA-48, CTX-M-15, TEM, SHV)): Z (MIC of greater than 10 μg/mL)
MIC (strain KP1087 Klebsiella pneumoniae (KPC-2, CTX-M-15, SHV-11, TEM-1)): Y (MIC of 1 μg/mL to 10 μg/mL)
MIC (strain KP1088 Klebsiella pneumoniae (KPC-3, SHV-11, TEM-1)): X (MIC of less than 1 μg/mL)
MIC (strain KP1089 Klebsiella pneumonias (OXA-181, CTX-M-15, TEM, SHV)): X (MIC of less than 1 μg/mL)
MIC (strain KP1095 Klebsiella pneumoniae (KPC-2 TEM-1 SHV-1)): X (MIC of less than 1 μg/mL)
MIC (strain KP1096 Klebsiella pneumoniae (KPC-2 TEM-181 SHV-11)): X (MIC of less than 1 μg/mL)
MIC (strain KP1097 Klebsiella pneumonias (IMP-1)): X (MIC of less than 1 μg/mL)
MIC (strain KP1098 Klebsiella pneumoniae (IMP-26)): Y (MIC of 1 μg/mL to 10 μg/mL)
MIC (strain KP1104 Klebsiella pneumoniae (KPC TEM)): X (MIC of less than 1 μg/mL)
MIC (strain KP1105 Klebsiella pneumoniae (KPC TEM SHV)): X (MIC of less than 1 μg/mL)
MIC (strain KP1159 Klebsiella pneumoniae (SHV-1(2b); CTX-M-15; IMP-4)): Y (MIC of 1 μg/mL to 10 μg/mL)
MIC (strain KP1160 Klebsiella pneumoniae (SHV-28(2be); CTX-M-15; IMP-26)): Y (MIC of 1 μg/mL to 10 μg/mL)
MIC (strain KP1161 Klebsiella pneumoniae (NDM-1)): X (MIC of less than 1 μg/mL)
MIC (strain KP1164 Klebsiella pneumoniae (SHV-12(2be); VIM-1)): X (MIC of less than 1 μg/mL)
MIC (strain KP1165 Klebsiella pneumoniae (SHV-11(2b); CTX-M-15; VIM-27)): Z (MIC of greater than 10 μg/mL)
MIC (strain KP1166 Klebsiella pneumoniae (SHV-5(2be); VIM-26)): Y (MIC of 1 μg/mL to 10 μg/mL)
MIC (strain KP1167 Klebsiella pneumoniae (SHV-12(2be); VIM-1)): X (MIC of less than 1 μg/mL)
MIC (strain KP1169 Klebsiella pneumoniae (SHV-11(2b); VIM-1)): X (MIC of less than 1 μg/mL)
MIC (strain KP1170 Klebsiella pneumoniae (SHV-11(2b); CTX-M-15; NDM-1)): X (MIC of less than 1 μg/mL)
MIC (strain KP1172 Klebsiella pneumoniae (SHV-31(2be); DHA-1; VIM-1)): X (MIC of less than 1 μg/mL)
MIC (strain KP1173 Klebsiella pneumoniae (TEM-33(2br); CTX-M-15; IMP-1)): X (MIC of less than 1 μg/mL)
MIC (strain KP1174 Klebsiella pneumoniae (CTX-M-14; IMP-1)): X (MIC of less than 1 μg/mL)
MIC (strain KP1175 Klebsiella pneumoniae (SHV-OSBL(2b); VIM-1)): X (MIC of less than 1 μg/mL)
MIC (strain KP1177 Klebsiella pneumoniae (SHV-OSBL(2b), TEM-OSBL(2b); CTX-M-15; NDM-1)): X (MIC of less than 1 μg/mL)
MIC (strain KP1178 Klebsiella pneumoniae (SHV-OSBL(2b;) TEM-OSBL(2b); CTX-M-15; NDM-1)): X (MIC of less than 1 μg/mL)
MIC (strain KP1179 Klebsiella pneumoniae (SHV-12(2be), TEM-OSBL(2b); CTX-M-15; NDM-7)): X (MIC of less than 1 μg/mL)
MIC (strain KP1180 Klebsiella pneumoniae (SHV-OSBL(2b), TEM-OSBL(2b); CTX-M-15; DHA-1; IMP-26)): X (MIC of less than 1 μg/mL)
MIC (strain KP1181 Klebsiella pneumoniae (SHV-OSBL(2b); CTX-M-15; IMP-26)): X (MIC of less than 1 μg/mL)
MIC (strain KP1183 Klebsiella pneumoniae (SHV-OSBL(2b), TEM-OSBL(2b); CTX-M-15; NDM-1)): X (MIC of less than 1 μg/mL)
MIC (strain KP1184 Klebsiella pneumoniae (SHV-OSBL(2b); IMP-1)): X (MIC of less than 1 μg/mL)
MIC (strain KP1185 Klebsiella pneumoniae (SHV-OSBL(2b), TEM-OSBL(2b); IMP-4)): Y (MIC of 1 μg/mL to 10 μg/mL)
MIC (strain KP1186 Klebsiella pneumoniae (CTX-M-15; NDM-1)): X (MIC of less than 1 μg/mL)
MIC (strain KP1187 Klebsiella pneumoniae (SHV-55(2be), TEM-OSBL(2b); CTX-M-15; NDM-1)): X (MIC of less than 1 μg/mL)
MIC (strain KP1188 Klebsiella pneumoniae (SHV-OSBL(2b); CTX-M-15; NDM-1)): Y (MIC of 1 μg/mL to 10 μg/mL)
MIC (strain KP1189 Klebsiella pneumoniae (TEM-OSBL(2b); CTX-M-15; CTX-M-27; NDM-1)): X (MIC of less than 1 μg/mL)
MIC (strain KPM1123 Klebsiella pneumoniae (KPC-2 TEM SHV)): X (MIC of less than 1 μg/mL)
MIC (strain KPM1202 Klebsiella pneumoniae (KPC SHV TEM)): X (MIC of less than 1 μg/mL)
MIC (strain KPM1203 Klebsiella pneumoniae (KPC SHV TEM)): X (MIC of less than 1 μg/mL)
MIC (strain KPM1344 Klebsiella pneumoniae (VIM-1)): X (MIC of less than 1 μg/mL)
MIC (strain KPM1345 Klebsiella pneumoniae (VIM-1 SHV)): X (MIC of less than 1 μg/mL)
MIC (strain KPM1347 Klebsiella pneumoniae (NDM-1 SHV CTX-M-15)): X (MIC of less than 1 μg/mL)
MIC (strain KX1017 Klebsiella oxytoca (KPC-2, OXA-2, SHV-30)): X (MIC of less than 1 μg/mL)
MIC (strain KX1018 Klebsiella oxytoca (KPC-2, SHV-40, OXY-1)): X (MIC of less than 1 μg/mL)
MIC (strain KX1019 Klebsiella oxytoca (KPC-2, OXA-2)): X (MIC of less than 1 μg/mL)
MIC (strain PM1024 Proteus mirabilis (TEM-1(2b); CMY-16; VIM-1)): X (MIC of less than 1 μg/mL)
MIC (strain PM1026 Proteus mirabilis (DHA-1; IMP-26)): X (MIC of less than 1 μg/mL)
MIC (strain PM1027 Proteus mirabilis (VIM-5)): X (MIC of less than 1 μg/mL)
MIC (strain SM1023 Serratia marcescens (VIM-4)): Y (MIC of 1 μg/mL to 10 μg/mL)
